In patent publication US10065943B2, “Pyrrolidine derivatives as angiotensin II type 2 antagonists” (NOVARTIS AG, priority 2015, dated 2018) one finds Ki data, which are given here for 21 compounds.

SMILES strings stand for the structures.

In the test the target is T1, human AT2 receptor (Homo sapiens, UniProt P50052).
T1 construct: membranes prepared in house
T1 sequence (P50052 1-363): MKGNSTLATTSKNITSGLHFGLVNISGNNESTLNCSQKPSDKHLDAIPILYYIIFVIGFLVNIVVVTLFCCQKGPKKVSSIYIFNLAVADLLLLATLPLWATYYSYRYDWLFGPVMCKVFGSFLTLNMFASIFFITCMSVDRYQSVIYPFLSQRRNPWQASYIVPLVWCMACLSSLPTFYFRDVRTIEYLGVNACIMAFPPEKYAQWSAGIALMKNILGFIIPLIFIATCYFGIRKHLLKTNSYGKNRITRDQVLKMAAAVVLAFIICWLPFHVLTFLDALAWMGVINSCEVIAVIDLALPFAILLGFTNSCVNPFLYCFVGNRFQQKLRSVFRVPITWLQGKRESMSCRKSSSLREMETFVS
The test is described as follows: AT2 receptor binding ([125I]CGP 42112A displacement, CHO-K1 membranes). As to conditions: [125I]CGP 42112A 0.05 nM, membranes of CHO-K1 cells expressing human AT2 receptor; Ki from IC50 by Cheng-Prussoff equation; read-out: Ki. An excerpt:
Reagents were purchased from Sigma-Aldrich, unless otherwise specified. Dialyzed fetal bovine serum (FBS) was from Life Technologies (cat. no. 10073772). Valiscreen® human angiotensin AT2 receptor cell line (cat. no. ES-070-C), [^125I]CGP 42112A (cat. no. NEX324025UC) and MicroScint™ 40 (cat. no. 6013641) were purchased from PerkinElmer. CGP 42112A (cat. no. 2569) and PD 123,319 ditrifluoroacetate (cat. no. 1361) were from Tocris Biosciences.
• 1. Growth medium • EX-CELL® CHO DHFR^− medium • 10% FBS, dialysed • 1 mM sodium pyruvate • 2 mM L-glutamine • 2. Harvesting buffer • PBS • 2 mM EDTA • 3. Suspension buffer • 50 mM Tris-HCl, pH 7.4 • 10 mM EDTA • 4. Resuspension buffer • 50 mM Tris-HCl, pH 7.4 • 0.1 mM EDTA • 0.1% sucrose • 5. Binding assay buffer • 50 mM Tris-HCl, pH 7.4 • 5 mM MgCl2 • 1 mM EDTA • 0.1% gelatin • 6. Wash buffer • 50 mM Tris-HCl, pH 7.4 Procedure for Membrane Preparation • Valiscreen® CHO-K1 cells stably expressing the human AT2 receptor were cultured in growth medium. • Cells were seeded into T-175 flasks and grown to 70-80% confluence. • Medium was removed from confluent flasks and cells were washed with warm PBS. • Cells were harvested by incubating with harvesting buffer for 10 min at 37° C., and then transferred to a centrifuge tube on ice. • Cells were centrifuged at 200 g for 5 min at 4° C. • Cell pellets were homogenised in ice-cold suspension buffer. • Homogenates were centrifuged at 40,000 g for 15 min at 4° C. • Pellets were resuspended in ice-cold resuspension buffer and centrifuged at 40,000 g for 15 min at 4° C. • Final pellets were homogenised in ice-cold resuspension buffer. • Protein concentrations were determined by BCA assay method with BSA as standard. Compound Preparation
Compounds were prepared from 10 mM stock solutions in 100% DMSO. Dilutions were made using electronic multichannel pipettes.
• Compounds dilutions were prepared in 100% DMSO at 100× final assay concentration. • Compounds were diluted in 100% DMSO to the appropriate maximal concentration. • 30 μL compound was added to row A. • 21.6 μL of 100% DMSO was added to rows B-H. • Transfer 10 μL from row A into row B (half log dilution). • Transfer 10 μL from row B into row C (half log dilution). • Transfer 10 μL from row C into row D (half log dilution). • Transfer 10 μL from row D into row E (half log dilution). • Transfer 10 μL from row E into row F (half log dilution). • Transfer 10 μL from row F into row G (half log dilution). • Transfer 10 μL from row G into row H (half log dilution). Working Plate Preparation (96-Well Plate) • Compounds were diluted 10-fold in assay buffer. • 10 μL compound solution from dose plate was transferred to corresponding well of working plate. • 90 μL assay buffer was added to the wells of working plate. • Working solutions contained 10% DMSO in assay buffer (1% DMSO final assay concentration). Controls • Total binding (high control) was determined in the absence of unlabelled ligand. A solution of 10% DMSO in assay buffer was prepared. • Non-specific binding (low control) was determined in the presence of a vast excess (10 μM) of PD 123,319. 1 mM stock solution of PD 123,319 in water was diluted 10-fold with 10% DMSO in assay buffer. Assay Plate Preparation (96-Well Plate)
15 μL compound solution was transferred to duplicate wells of assay plate. 5 compounds were tested per plate. 15 μL control solutions were transferred to columns 1 and 12 of assay plate.
In general, Ki refers to the equilibrium dissociation constant of an inhibitor or competing ligand from its target. As for `CN1CCN([C@H]2C[C@@H](C(=O)O)N(C(=O)C(c3ccccc3)c3ccccc3)C2)Cc2ccccc21` [Compound 17, (2S,4S)-1-(2,2-Diphenylacetyl)-4-(1-methyl-1,2,3,5-tetrahydro-4H-benzo[e][1,4]diazepin-4-yl)pyrrolidine-2-carboxylic acid], the Ki was 178 nM. Turning to `C[C@@]1(C(=O)NS(=O)(=O)C2CC2)C[C@@H](N2CCCOc3cc(F)c(F)cc32)CN1C(=O)C(c1ccccc1)c1ccccc1` [Compound 42a, (2S,4R)—N-(cyclopropylsulfonyl)-4-(7,8-difluoro-3,4-dihydrobenzo[b][1,4]oxazepin-5(2H)-yl)-1-(2,2-diphenylacetyl)-2-methylpyrrolidine-2-carboxamide], the Ki is 5 nM.

Consider `O=C(O)[C@@H]1C[C@H](N2Cc3ccccc3C2)CN1C(=O)C(c1ccccc1)c1ccccc1` [Compound 20, (2S,4S)-1-(2,2-Diphenylacetyl)-4-(isoindolin-2-yl)pyrrolidine-2-carboxylic acid], for which the Ki stood at 359 nM. With `O=C(NS(=O)(=O)C1CC1)[C@@H]1C[C@H](N2CCCOc3ccc(F)cc32)CN1C(=O)C(c1ccccc1)c1ccccc1` [Compound 37, (2S,4S)—N-(Cyclopropylsulfonyl)-1-(2,2-diphenylacetyl)-4-(7-fluoro-3,4-dihydrobenzo[b][1,4]oxazepin-5(2H)-yl)pyrrolidine-2-carboxamide] the figure was 4.1 nM. Regarding `NC(=O)[C@@H]1C[C@H](N2CCCCc3ccccc32)CN1C(=O)C(c1ccccc1)c1ccccc1` [Compound 15, (2S,4S)-1-(2,2-Diphenylacetyl)-4-(2,3,4,5-tetrahydro-1H-benzo[b]azepin-1-yl)pyrrolidine-2-carboxamide], the Ki came to 66.8 nM. The value for `O=C(O)[C@@H]1C[C@H](N2CCOCc3ccccc32)CN1C(=O)C(c1ccccc1)c1ccccc1` [Compound 10, (2S,4S)-4-(2,3-Dihydrobenzo[e][1,4]oxazepin-1(5H)-yl)-1-(2,2-diphenylacetyl)pyrrolidine-2-carboxylic acid] was 148 nM; that for `O=C(O)[C@@H]1C[C@H](N2CCCCc3cc(F)ccc32)CN1C(=O)C(c1ccccc1)c1ccccc1` [Compound 5, (2S,4S)-1-(2,2-Diphenylacetyl)-4-(7-fluoro-2,3,4,5-tetrahydro-1H-benzo[b]azepin-1-yl)pyrrolidine-2-carboxylic acid] was 9.8 nM; that for `O=C(O)[C@@H]1C[C@H](N2CCCOc3cc(F)c(F)cc32)CN1C(=O)C(c1ccccc1)c1ccccc1` [Compound 21, (2S,4S)-4-(7,8-difluoro-3,4-dihydrobenzo[b][1,4]oxazepin-5(2H)-yl)-1-(2,2-diphenylacetyl)pyrrolidine-2-carboxylic acid] was 2.3 nM. The value for `O=C(O)[C@@H]1C[C@H](N2CCCCc3cc(F)c(F)cc32)CN1C(=O)C(c1ccccc1)c1ccccc1` [Compound 27, (2S,4S)-4-(7,8-Difluoro-2,3,4,5-tetrahydro-1H-benzo[b]azepin-1-yl)-1-(2,2-diphenylacetyl)pyrrolidine-2-carboxylic acid] was 2.8 nM; that for `O=C(O)[C@@H]1C[C@H](N2CCCCc3sccc32)CN1C(=O)C(c1ccccc1)c1ccccc1` [Compound 11, (2S,4S)-1-(2,2-Diphenylacetyl)-4-(5,6,7,8-tetrahydro-4H-thieno[3,2-b]azepin-4-yl)pyrrolidine-2-carboxylic acid] was 4.9 nM; that for `CN(C)S(=O)(=O)NC(=O)[C@@H]1C[C@H](N2CCCCc3cc(F)c(F)cc32)CN1C(=O)C(c1ccccc1)c1ccccc1` [Compound 40, (2S,4S)-4-(7,8-Difluoro-2,3,4,5-tetrahydro-1H-benzo[b]azepin-1-yl)-N—(N,N-dimethylsulfamoyl)-1-(2,2-diphenylacetyl)pyrrolidine-2-carboxamide] was 9.3 nM. On to `O=C(O)[C@@H]1C[C@H](N2CCCOc3ccccc32)CN1C(=O)C(c1ccccc1)c1ccccc1` [Compound 7, (2S,4S)-4-(3,4-dihydrobenzo[b][1,4]oxazepin-5(2H)-yl)-1-(2,2-diphenylacetyl)pyrrolidine-2-carboxylic acid], for which the Ki worked out at 2 nM. The value for `O=C(C(c1ccccc1)c1ccccc1)N1C[C@@H](N2CCCCc3ccccc32)C[C@H]1c1nn[nH]n1` [Compound 35, 2,2-Diphenyl-1-((2S,4S)-4-(2,3,4,5-tetrahydro-1H-benzo[b]azepin-1-yl)-2-(2H-tetrazol-5-yl)pyrrolidin-1-yl)ethan-1-one] was 36.2 nM; that for `O=C(O)[C@@H]1C[C@@H](N2CCCCc3ccncc32)CN1C(=O)C(c1ccccc1)c1ccccc1` [Compound 28, (2S,4R)-1-(2,2-Diphenylacetyl)-4-(2,3,4,5-tetrahydro-1H-pyrido[3,4-b]azepin-1-yl)pyrrolidine-2-carboxylic acid] was 33 nM. With `O=C(NS(=O)(=O)C1CC1)[C@@H]1C[C@H](N2CCCCc3cc(F)c(F)cc32)CN1C(=O)C(c1ccccc1)c1ccccc1` [Compound 41, (2S,4S)—N-(Cyclopropylsulfonyl)-4-(7,8-difluoro-2,3,4,5-tetrahydro-1H-benzo[b]azepin-1-yl)-1-(2,2-diphenylacetyl)pyrrolidine-2-carboxamide] the figure was 15.1 nM; with `O=C(O)[C@@H]1C[C@H](N2CCCc3ccccc3C2)CN1C(=O)C(c1ccccc1)c1ccccc1` [Compound 18, (2S,4S)-1-(2,2-Diphenylacetyl)-4-(1,3,4,5-tetrahydro-2H-benzo[c]azepin-2-yl)pyrrolidine-2-carboxylic acid], 79.7 nM; with `O=C(O)[C@@H]1C[C@H](N2CCCOc3cc(F)ccc32)CN1C(=O)C(c1ccccc1)c1ccccc1` [Compound 9, (2S,4S)-1-(2,2-diphenylacetyl)-4-(8-fluoro-3,4-dihydrobenzo[b][1,4]oxazepin-5(2H)-yl)pyrrolidine-2-carboxylic acid], 3.1 nM.

On to `O=C(O)[C@@H]1C[C@H](N2CCCS(=O)(=O)c3ccccc32)CN1C(=O)C(c1ccccc1)c1ccccc1` [Compound 34, (2S,4S)-4-(1,1-Dioxido-3,4-dihydrobenzo[b][1,4]thiazepin-5(2H)-yl)-1-(2,2-diphenylacetyl)pyrrolidine-2-carboxylic acid], for which the Ki was found to be 10 nM. With `O=C(O)[C@@H]1C[C@H](N2CCCCc3ccccc32)CN1C(=O)C(c1ccccc1)c1ccccc1` [Compound 1, (2S,4S)-1-(2,2-Diphenylacetyl)-4-(2,3,4,5-tetrahydro-1H-benzo[b]azepin-1-yl)pyrrolidine-2-carboxylic acid] the figure was 2.7 nM.

Consider `O=C(O)[C@@H]1C[C@H](N2CCc3ccccc3CC2)CN1C(=O)C(c1ccccc1)c1ccccc1` [Compound 45, (2S,4S)-1-(2,2-Diphenylacetyl)-4-(1,2,4,5-tetrahydro-3H-benzo[d]azepin-3-yl)pyrrolidine-2-carboxylic acid], for which the Ki came to 28.2 nM. With `O=C(O)[C@@H]1C[C@@H](N2CCCOc3ccccc32)CN1C(=O)C(c1ccccc1)c1ccccc1` [Compound 26, (2S,4R)-4-(3,4-Dihydrobenzo[b][1,4]oxazepin-5(2H)-yl)-1-(2,2-diphenylacetyl)pyrrolidine-2-carboxylic acid] the figure was 4.1 nM.
